In the assay the target is T1, CFTR (Homo sapiens, UniProt P13569).
T1 construct: results in the phosphorylation and opening of CFTR anion channels
T1 sequence (P13569 whole entry): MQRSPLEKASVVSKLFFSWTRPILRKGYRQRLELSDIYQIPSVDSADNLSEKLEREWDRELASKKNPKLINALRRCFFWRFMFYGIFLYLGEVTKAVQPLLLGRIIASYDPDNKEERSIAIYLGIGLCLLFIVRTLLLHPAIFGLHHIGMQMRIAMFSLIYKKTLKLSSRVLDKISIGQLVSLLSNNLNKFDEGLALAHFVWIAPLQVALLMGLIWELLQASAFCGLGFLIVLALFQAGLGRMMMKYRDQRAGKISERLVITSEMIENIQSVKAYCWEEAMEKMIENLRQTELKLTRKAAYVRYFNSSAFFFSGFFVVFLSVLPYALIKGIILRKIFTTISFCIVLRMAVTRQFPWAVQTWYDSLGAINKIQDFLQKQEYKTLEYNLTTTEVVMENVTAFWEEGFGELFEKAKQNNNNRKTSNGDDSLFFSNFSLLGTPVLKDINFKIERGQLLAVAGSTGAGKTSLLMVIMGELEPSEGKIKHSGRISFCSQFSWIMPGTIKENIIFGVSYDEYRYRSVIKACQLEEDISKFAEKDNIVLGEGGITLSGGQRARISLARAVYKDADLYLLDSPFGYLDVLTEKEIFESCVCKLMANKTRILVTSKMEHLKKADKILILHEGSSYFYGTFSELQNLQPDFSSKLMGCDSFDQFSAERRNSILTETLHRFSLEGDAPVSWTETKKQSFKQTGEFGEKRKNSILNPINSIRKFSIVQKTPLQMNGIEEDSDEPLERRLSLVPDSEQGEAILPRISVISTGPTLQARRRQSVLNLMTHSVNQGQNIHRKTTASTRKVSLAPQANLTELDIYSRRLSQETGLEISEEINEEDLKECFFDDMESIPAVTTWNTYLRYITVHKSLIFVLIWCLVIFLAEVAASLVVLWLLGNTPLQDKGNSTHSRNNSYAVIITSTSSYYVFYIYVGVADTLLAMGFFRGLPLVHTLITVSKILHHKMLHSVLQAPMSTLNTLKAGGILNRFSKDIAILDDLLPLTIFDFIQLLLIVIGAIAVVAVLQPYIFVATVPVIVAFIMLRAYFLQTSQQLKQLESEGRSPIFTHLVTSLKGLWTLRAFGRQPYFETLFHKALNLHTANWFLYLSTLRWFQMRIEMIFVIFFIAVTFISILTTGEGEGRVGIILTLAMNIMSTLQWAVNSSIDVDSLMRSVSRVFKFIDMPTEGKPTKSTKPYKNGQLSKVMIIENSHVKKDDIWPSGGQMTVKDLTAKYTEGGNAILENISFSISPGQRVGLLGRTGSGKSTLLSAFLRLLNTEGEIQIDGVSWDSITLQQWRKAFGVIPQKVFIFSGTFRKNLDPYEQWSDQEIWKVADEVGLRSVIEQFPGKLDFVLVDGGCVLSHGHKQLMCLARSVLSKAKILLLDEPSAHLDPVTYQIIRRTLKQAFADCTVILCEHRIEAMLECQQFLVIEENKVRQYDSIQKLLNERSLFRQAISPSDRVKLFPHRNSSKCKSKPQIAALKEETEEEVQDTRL
The assay is described as follows: T84 assay (FLIPR membrane potential, forskolin/IBMX-stimulated CFTR channel activity). It is filed as cell-based. The settings on record: average of at least 2 runs unless annotated n = 1. On the procedure: (§1) For example, Human colonic T84 cells can be acquired from the European Collection of Cell Cultures (ECACC) and grown in standard culture conditions as described by the supplier. On the day before assay 25,000 T84 cells per well are plated into standard black walled, clear bottom 384-well assay plates in standard growth medium consisting of DMEM:F12 with 10% FBS and incubated overnight. On the day of the assay the plates are washed using a standard assay buffer (HBSS with 10 mM Hepes) and incubated for 15 minutes in serum free cell culture medium before the addition of a commercially available membrane potential sensitive fluorescent dye (FLIPR Red membrane potential dye, Molecular Devices Corporation). T84 cells are incubated with the FLIPR Red membrane potential dye for 45 minutes in the presence and absence of test compound before being transferred to a commercially available fluorescence imaging plate reader (FLIPR384, Molecular Devices Corporation). Fluorescence levels are monitored continuously every second for 150 seconds; after an initial 10 second baseline, CFTR channel activity is stimulated through the addition of 10 μM forskolin in the presence of 100 μM of the phosphodiesterase inhibitor iso-butyl-methylxanthine (IBMX). Addition of the forskolin leads to the activation of intracellular adenylyl cylase 1, elevating cAMP levels and results in the phosphorylation and opening of CFTR anion channels. CFTR channel opening causes chloride ion efflux and subsequent depolarization of the cells, which is measured by an increase in fluorescence. CFTR inhibitor compounds prevent cell depolarization and the associated increase in fluorescence.
as §1, with “Human colonic” for “For example, Human colonic”, “T84 cells are acquired from” for “T84 cells can be acquired from”, “(ECACC) and are grown in” for “(ECACC) and grown in”
Unless otherwise indicated, the IC50 values are reported as an average of at least 2 runs. Where only 1 run is used, this is indicated by the annotation “n=1.”
One may read the IC50 as the concentration needed to halve the response being measured. Read a low IC50 as inhibition by little substance. In the case of `Oc1c(Br)cc(-c2ccc(OCc3ccc(F)cc3Cl)nn2)cc1Br` [Compound 89, 2,6-dibromo-4-(6-(2-chloro-4-fluorobenzyloxy)pyridazin-3-yl)phenol], the IC50 stood at 6.01 µM. To `CC(Oc1ccc(-c2cc(Br)c(O)c(Br)c2)nn1)c1cccc(Cl)c1` (stereo not shown) [Compound 90, 2,6-dibromo-4-(6-(1-(3-chlorophenyl)ethoxy)pyridazin-3-yl)phenol] belongs 17.6 µM; to `Oc1c(Br)cc(-c2ccc(OCc3cccc(Br)c3)nn2)cc1Br` [Compound 91, 2,6-dibromo-4-(6-(3-bromobenzyloxy)pyridazin-3-yl)phenol], 26.1 µM; to `Oc1c(Br)cc(-c2ccc(OCCc3ccc(Cl)cc3)nn2)cc1Br` [Compound 92, 2,6-dibromo-4-(6-(4-chlorophenethoxy)pyridazin-3-yl)phenol], 3.38 µM. The same measure for `Oc1c(Br)cc(-c2ccc(OCCc3ccc(Br)cc3)nn2)cc1Br` [Compound 93, 2,6-dibromo-4-(6-(4-bromophenethoxy)pyridazin-3-yl)phenol]: 4.2 µM.

In the case of `Oc1c(Br)cc(-c2ccc(OCCc3cccc(Cl)c3Cl)nn2)cc1Br` [Compound 94, 2,6-dibromo-4-(6-(2,3-dichlorophenethoxy)pyridazin-3-yl)phenol], the IC50 came to 8.03 µM. The same measure for `Oc1c(Br)cc(-c2ccc(OCc3cccc4ccccc34)nn2)cc1Br` [Compound 95, 2,6-dibromo-4-(6-(naphthalen-1-ylmethoxy)pyridazin-3-yl)phenol]: 7.9 µM; for `Oc1c(Cl)cc(-c2ccc(OCc3ccc(F)cc3Cl)nn2)cc1Cl` [Compound 96, 2,6-dichloro-4-(6-(2-chloro-4-fluorobenzyloxy)pyridazin-3-yl)phenol]: 3.74 µM. The same measure for `Oc1c(Br)cc(-c2ccc(OCc3cccc(Cl)c3Cl)nn2)cc1Br` [Compound 99, 2,6-dibromo-4-(6-(2,3-dichlorobenzyloxy)pyridazin-3-yl)phenol]: 12.4 µM; for `Oc1c(Br)cc(-c2ccc(OCCc3cccc4ccccc34)nn2)cc1Br` [Compound 100, 2,6-dibromo-4-(6-(2-(naphthalen-1-yl)ethoxy)pyridazin-3-yl)phenol]: 25.3 µM. To `CC(C)(C)OC(=O)N1CCC(COc2ccc(-c3cc(Cl)c(O)c(Cl)c3)nn2)(c2ccccc2)CC1` [Compound 101, tert-butyl 4-((6-(3,5-dichloro-4-hydroxyphenyl)pyridazin-3-yloxy)methyl)-4-phenylpiperidine-1-carboxylate] belongs 12.7 µM. `Oc1c(Cl)cc(-c2ccc(OCCc3cccs3)nn2)cc1Cl` [Compound 102, 2,6-dichloro-4-(6-(2-(thiophen-2-yl)ethoxy)pyridazin-3-yl)phenol] registered an IC50 of 6.84 µM. This IC50 is about 1.9-fold lower than that of the compound before. Take `Oc1c(Cl)cc(-c2ccc(OCCc3ccccc3)nn2)cc1Cl` [Compound 103, 2,6-dichloro-4-(6-phenethoxypyridazin-3-yl)phenol]: the midpoint of inhibition, the IC50, lay at 5.75 µM. For the compound `Oc1c(Cl)cc(-c2ccc(OCCc3cccc(Cl)c3)nn2)cc1Cl` [Compound 104, 2,6-dichloro-4-(6-(3-chlorophenethoxy)pyridazin-3-yl)phenol], half-maximal inhibition (IC50) required 10.4 µM.

Regarding `Oc1c(Cl)cc(-c2ccc(OCc3cnc(Br)s3)nn2)cc1Cl` [Compound 105, 4-(6-((2-bromothiazol-5-yl)methoxy)pyridazin-3-yl)-2,6-dichlorophenol], the concentration for half-maximal inhibition (IC50) turned out to be 20.8 µM.

As for `Oc1c(Cl)cc(-c2ccc(OCc3ccsc3)nn2)cc1Cl` [Compound 106, 2,6-dichloro-4-(6-(thiophen-3-ylmethoxy)pyridazin-3-yl)phenol], the IC50 stood at 19.5 µM.

The compound `CN(C)CCCOc1ccc(CN2CCC(COc3ccc(-c4cc(Cl)c(O)c(Cl)c4)nn3)(c3ccccc3)CC2)cc1` [Compound 107, 2,6-dichloro-4-(6-((1-(4-(3-(dimethylamino)propoxy)benzyl)-4-phenylpiperidin-4-yl)methoxy)pyridazin-3-yl)phenol] showed an IC50 of 2.85 µM. To `Oc1c(Cl)cc(-c2ccc(OCC3(c4ccccc4)CCN(Cc4ccc(Cl)nc4)CC3)nn2)cc1Cl` [Compound 108, 2,6-dichloro-4-(6-((1-((6-chloropyridin-3-yl)methyl)-4-phenylpiperidin-4-yl)methoxy)pyridazin-3-yl)phenol] belongs 0.63 µM; to `OCCN(Cc1cccnc1)c1ccc(-c2cc(Cl)c(O)c(Cl)c2)nn1` [Compound 109, 2,6-dichloro-4-(6-((2-hydroxyethyl)(pyridin-3-ylmethyl)amino)pyridazin-3-yl)phenol], 4.72 µM. The same measure for `Oc1c(Cl)cc(-c2ccc(NCc3ccccc3)nn2)cc1Cl` [Compound 110, 4-(6-(benzylamino)pyridazin-3-yl)-2,6-dichlorophenol]: 0.73 µM. As for `OCCN(Cc1ccc(F)cc1)c1ccc(-c2cc(Cl)c(O)c(Cl)c2)nn1` [Compound 111, 2,6-dichloro-4-(6-((4-fluorobenzyl)(2-hydroxyethyl)amino)pyridazin-3-yl)phenol], the IC50 was found to be 0.37 µM. To `OCCN(Cc1ccccc1Cl)c1ccc(-c2cc(Cl)c(O)c(Cl)c2)nn1` [Compound 112, 2,6-dichloro-4-(6-((2-chlorobenzyl)(2-hydroxyethyl)amino)pyridazin-3-yl)phenol] belongs 1.53 µM; to `OCCN(Cc1ccccn1)c1ccc(-c2cc(Cl)c(O)c(Cl)c2)nn1` [Compound 113, 2,6-dichloro-4-(6-((2-hydroxyethyl)(pyridin-2-ylmethyl)amino)pyridazin-3-yl)phenol], 17.6 µM; to `COCCN(Cc1ccccc1)c1ccc(-c2cc(Cl)c(O)c(Cl)c2)nn1` [Compound 114, 4-(6-(benzyl(2-methoxyethyl)amino)pyridazin-3-yl)-2,6-dichlorophenol], 0.13 µM.

`OCCN(Cc1ccncc1)c1ccc(-c2cc(Cl)c(O)c(Cl)c2)nn1` [Compound 116, 2,6-dichloro-4-(6-((2-hydroxyethyl)(pyridin-4-ylmethyl)amino)pyridazin-3-yl)phenol]: the IC50 amounted to 16.5 µM.

As to `Oc1c(Cl)cc(-c2ccc(NCc3cc(F)ccc3F)nn2)cc1Cl` [Compound 117, 2,6-dichloro-4-(6-(2,5-difluorobenzylamino)pyridazin-3-yl)phenol], the IC50 stood at 1.36 µM. `CN(Cc1ccccc1)c1ccc(-c2cc(Cl)c(O)c(Cl)c2)nn1` [Compound 118, 4-(6-(benzyl(methyl)amino)pyridazin-3-yl)-2,6-dichlorophenol] came in with an IC50 of 0.06 µM. The same measure for `Oc1c(Cl)cc(-c2ccc(OCc3ccccc3)nn2)cc1Cl` [Compound 119, 4-(6-(benzyloxy)pyridazin-3-yl)-2,6-dichlorophenol]: 2.76 µM; for `CN(Cc1cccc(Oc2ccccn2)c1)c1ccc(-c2cc(Cl)c(O)c(Cl)c2)nn1` [Compound 120, 2,6-dichloro-4-(6-(methyl(3-(pyridin-2-yloxy)benzyl)amino)pyridazin-3-yl)phenol]: 1.71 µM. The same measure for `CN(Cc1ccc(F)c(F)c1)c1ccc(-c2cc(Cl)c(O)c(Cl)c2)nn1` [Compound 121, 2,6-dichloro-4-(6-((3,4-difluorobenzyl)(methyl)amino)pyridazin-3-yl)phenol]: 0.23 µM; for `Oc1c(Cl)cc(-c2ccc(N3CCc4ccccc4C3)nn2)cc1Cl` [Compound 122, 2,6-dichloro-4-(6-(3,4-dihydroisoquinolin-2(1H)-yl)pyridazin-3-yl)phenol]: 0.15 µM.

As for `OCCN(Cc1cccc(Cl)c1Cl)c1ccc(-c2cc(Cl)c(O)c(Cl)c2)nn1` [Compound 123, 2,6-dichloro-4-(6-((2,3-dichlorobenzyl)(2-hydroxyethyl)amino)pyridazin-3-yl)phenol], half-maximal inhibition (IC50) required 1.41 µM. In turn, `CN(Cc1cccnc1)c1ccc(-c2cc(Cl)c(O)c(Cl)c2)nn1` [Compound 124, 2,6-dichloro-4-(6-(methyl(pyridin-3-ylmethyl)amino)pyridazin-3-yl)phenol] came in with a concentration for half-maximal inhibition (IC50) of 1.65 µM. The same measure for `CN(Cc1ccc(-c2ccncc2)cc1)c1ccc(-c2cc(Cl)c(O)c(Cl)c2)nn1` [Compound 125, 2,6-dichloro-4-(6-(methyl(4-(pyridin-4-yl)benzyl)amino)pyridazin-3-yl)phenol]: 2.05 µM.
